≈ marks a conversion by molar mass, not a printed value. Where a name gives a salt, the structure may show the parent alone. Read-outs that look alike come from different tables or passages of the source.
Experiments:
[1] = molecular target: alanine racemase enzyme from M. tuberculosis (Mycobacterium tuberculosis, UniProt P9WQA9, DEL103-104); format: biochemical
[2] = molecular target: T1, alanine racemase enzyme from S. aureus (Staphylococcus aureus, UniProt P63479); test: biochemical; settings: for inhibition at 2500 µM: read-out: In % (percent inhibition of alanine racemase)
T1 sequence (P63479 1-382): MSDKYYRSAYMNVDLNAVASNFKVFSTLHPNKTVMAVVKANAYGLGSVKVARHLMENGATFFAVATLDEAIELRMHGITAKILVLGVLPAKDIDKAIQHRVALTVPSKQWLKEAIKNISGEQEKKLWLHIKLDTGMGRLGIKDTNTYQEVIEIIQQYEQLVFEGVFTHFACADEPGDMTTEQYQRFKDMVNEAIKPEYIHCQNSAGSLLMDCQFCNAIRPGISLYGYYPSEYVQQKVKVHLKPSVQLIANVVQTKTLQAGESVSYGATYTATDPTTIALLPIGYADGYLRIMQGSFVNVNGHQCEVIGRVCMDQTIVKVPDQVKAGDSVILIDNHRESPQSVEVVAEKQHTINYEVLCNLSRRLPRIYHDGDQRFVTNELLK

[3] = molecular target: alanine racemase enzyme from P. aeruginosa (Pseudomonas aeruginosa, UniProt Q9HTQ2, A178S/N326M/S138R/S262R); test: biochemical; settings: for inhibition at 2500 µM: read-out: In % (percent inhibition of alanine racemase)
[4] = molecular target: alanine racemase enzyme from E. Coli (Escherichia coli, UniProt P0A6B4); test: biochemical; settings: for inhibition at 2500 µM: read-out: In % (percent inhibition of alanine racemase)
[5] = tested on: S. aureus; test: microbe, parasite or virus in culture; format: cell-based
[6] = tested on: E. Coli; test: microbe, parasite or virus in culture; format: cell-based
[7] = tested on: M. tuberculosis; format: cell-based
[8] = tested on: M. tuberculosis; test: microbe, parasite or virus in culture; format: cell-based
[9] = S. aureus ALR, % Inhibition at 2.5 mM
[10] = P. aeruginosa ALR, % Inhibition at 2.5 mM
[11] = P. aeruginosa ALR, read-out: Ki
[12] = E. Coli ALR, % Inhibition at 2.5 mM
[13] = Staphylococcus aureus, read-out: MIC
[14] = TB Assay of Hydroxamate Candidates, DMSO control 7, Water control 8
[15] = Mycobacterium tuberculosis, MGIT Assay, read-out: MIC
[16] = Escherichia coli, read-out: MIC

Chain of alanine racemase enzyme from P. aeruginosa (Q9HTQ2 whole entry S138R/A178S/S262R/N326M): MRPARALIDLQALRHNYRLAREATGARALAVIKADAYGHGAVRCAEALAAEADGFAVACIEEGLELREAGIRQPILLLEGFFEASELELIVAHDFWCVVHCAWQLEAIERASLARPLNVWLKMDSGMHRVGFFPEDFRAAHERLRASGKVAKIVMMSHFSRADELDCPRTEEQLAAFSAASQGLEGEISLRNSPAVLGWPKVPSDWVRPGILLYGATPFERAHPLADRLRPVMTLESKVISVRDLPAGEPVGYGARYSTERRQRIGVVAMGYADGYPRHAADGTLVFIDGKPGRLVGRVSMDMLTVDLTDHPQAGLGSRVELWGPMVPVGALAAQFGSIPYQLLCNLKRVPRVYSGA
Chain of alanine racemase enzyme from M. tuberculosis (P9WQA9 whole entry, looked up, stated change not applied): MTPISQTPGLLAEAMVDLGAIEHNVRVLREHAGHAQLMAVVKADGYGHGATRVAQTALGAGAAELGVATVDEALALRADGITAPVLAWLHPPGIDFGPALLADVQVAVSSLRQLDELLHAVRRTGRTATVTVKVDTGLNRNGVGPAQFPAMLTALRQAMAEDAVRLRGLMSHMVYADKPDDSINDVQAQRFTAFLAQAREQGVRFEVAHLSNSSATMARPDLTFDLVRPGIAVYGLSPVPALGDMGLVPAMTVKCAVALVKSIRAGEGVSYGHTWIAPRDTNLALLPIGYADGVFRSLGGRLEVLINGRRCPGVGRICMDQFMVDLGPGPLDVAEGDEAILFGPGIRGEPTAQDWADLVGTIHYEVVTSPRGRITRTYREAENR
Chain of alanine racemase enzyme from E. Coli (P0A6B4 whole entry): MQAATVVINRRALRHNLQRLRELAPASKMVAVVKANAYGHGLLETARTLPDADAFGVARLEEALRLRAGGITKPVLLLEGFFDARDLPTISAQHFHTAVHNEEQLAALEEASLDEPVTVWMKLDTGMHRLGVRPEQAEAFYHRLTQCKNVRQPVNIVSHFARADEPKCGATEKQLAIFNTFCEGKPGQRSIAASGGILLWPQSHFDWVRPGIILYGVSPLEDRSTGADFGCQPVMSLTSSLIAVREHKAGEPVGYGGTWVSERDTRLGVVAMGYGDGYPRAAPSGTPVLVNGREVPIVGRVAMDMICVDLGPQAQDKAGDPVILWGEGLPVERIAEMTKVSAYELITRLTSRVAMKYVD

Row | Compound | % In in TB-ALR-assay [1] [%] | In % (percent inhibition of alanine racemase) [1] [%] | Ki ([2]; S. aureus ALR, read-out: Ki) [µM] | inhibition at 2500 µM [2] [%] | Ki ([3]; Ki) [µM] | inhibition at 2500 µM [3] [%] | Ki ([4]; Ki) [µM] | inhibition at 2500 µM [4] [%] | MIC ([6]; Escherichia coli) [mM] | inhibition at 2500 µM [2, 9] [%] | inhibition at 2500 µM [3, 10] [%] | Ki [3, 11] [µM] | inhibition at 2500 µM [4, 12] [%] | Ki ([4]; E. Coli ALR, read-out: Ki) [µM] | MIC [5, 13] [mM] | Days of Detection [7, 14] [days] | MIC [8, 15] [µg/mL] | MIC [6, 16] [mM] | In % (percent inhibition of alanine racemase) [3, 10] [%] | MIC [5] [mM] | other results
1 | CNCC(=O)NO [CH3NHCH2C(O)NHOH, Sarcosine Hydroxamic Acid] | 81 | 81 ± 7 | 14300 | 28 ± 5 | 18200 | 24 ± 5 | 5700 | 34 ± 12 | > 5 |  |  |  |  |  |  |  |  |  |  |  | MIC ([5]; Staphylococcus aureus): > 5 mM; Days of Detection [7]: 32.5 days; MIC ([8]; Mycobacterium tuberculosis): 200 µg/mL (≈ 1920 µM); melting point: 140 to 141 °C
2 | N[C@@H]1CON=C1O [D-cycloserine, reference compound] | 96 | 93 | 10 |  |  |  |  |  |  | 94 | 95 | 10 | 93 | 10 | 0.2 (≈ 20.4 µg/mL) | >40 | < 12.5 |  |  |  | 
3 | NC(=O)C(=O)NO [H2NC(O)C(O)NHOH, N-Hydroxyoxalamide] | 93 | 93 ± 8 | 17 |  |  |  |  |  |  | 97 | 99 ± 4 | 16 | 97 ± 4 | 52 | > 5 | 32 | 50 (≈ 480 µM) | > 5 |  |  | 
4 | NCC(=O)NO [H2NCH2C(O)NHOH, glycine hydroxamic acid] | 100 | 100 ± 1 | 90 |  |  |  |  |  |  |  |  | 65 |  | 39 |  | >40 | 50 (≈ 555 µM) |  | 94 ± 1 | >0.5 | In % (percent inhibition of alanine racemase) [2, 9]: 91 ± 3%; In % (percent inhibition of alanine racemase) [4, 12]: 90 ± 5%; MIC [6]: >5 mM
5 | NC(=O)OCC(N)C(=O)NO (stereo not shown) [H2NCH(CH2OCONH2)C(O)NILIOH] |  | 97 ± 5 | 56 |  |  |  |  |  |  | 93 ± 4 | 94 ± 5 | 30 | 96 ± 8 | 8 | > 5 |  |  | > 5 |  |  | 
6 | NC(CO)C(=O)NO (stereo not shown) [H2NCH(CH2OH)C(O)NHOH] | 33 | 33 ± 8 | 7200 |  |  |  |  |  |  | 19 ± 8 | 28 ± 5 | 5100 | 0 |  | > 5 | 21.5 | 100 (≈ 833 µM) | > 5 |  |  | 
7 | NCC(=O)NO [H2NOH2G(O)NHOH] |  | 100 ± 2 | 34 |  |  |  |  |  |  |  |  | 33 |  | 75 |  |  |  |  | 90 ± 2 | >5 | In % (percent inhibition of alanine racemase) [2, 9]: 92 ± 3%; In % (percent inhibition of alanine racemase) [4, 12]: 90 ± 4%; MIC [6]: >5 mM
8 | Cl.NCC(=O)NO [HCl•H2NCH2C(O)NHOH, Glycine Hydroxamic Acid Hydrochloride] | 100 | 105 ± 6 |  | 95 ± 1 | 201 | 114 ± 14 | 268 | 88 ± 4 | > 5 |  |  |  |  |  |  |  |  |  |  | >5 | Ki ([2]; Ki): 217 µM; Days of Detection [7]: 16.5 days; MIC ([8]; Mycobacterium tuberculosis): 200 µg/mL
9 | Cl.NCCC(=O)NO [HCl•H2NCH2CH2C(O)NHOH, β-Alanine Hydroxamic Acid Hydrochloride] | 79 | 79 ± 12 |  | 49 ± 12 | 894 | 34 ± 9 | 1210 | 37 ± 10 | > 5 |  |  |  |  |  |  |  |  |  |  |  | Ki ([2]; Ki): 401 µM; MIC ([5]; Staphylococcus aureus): > 5 mM; Days of Detection [7]: 8.5 days; MIC ([8]; Mycobacterium tuberculosis): > 200 µg/mL; melting point: 140 to 142 °C
10 | C[C@H](N)C(=O)NO.Cl [HCl•H2NCH(CH3)C(O)NHOH*, L-Alanine Hydroxamic Acid Hydrochloride] |  |  |  | 32 ± 8 | 1060 | 33 ± 2 | 2780 | 39 ± 8 | > 5 |  |  |  |  |  |  |  |  |  |  |  | Ki ([2]; Ki): 1300 µM; MIC ([5]; Staphylococcus aureus): > 5 mM; melting point: 178 to 180 °C
11 | C[C@@H](N)C(=O)NO [Hcl•H2NCH(CH3)C(O)NHOH, D-Alanine Hydroxamic Acid Hydrochloride] |  |  |  | 33 ± 6 | 1010 | 29 ± 6 | 5200 | 35 ± 7 | > 5 |  |  |  |  |  |  |  |  |  |  |  | Ki ([2]; Ki): 2680 µM; MIC ([5]; Staphylococcus aureus): > 5 mM
12 | CC(N)C(=O)NO (stereo not shown) [HzNGH(~Ha)G(O)NHOH] |  | 48 ± 9 | 810 |  |  |  |  |  |  | 57 ± 4 | 66 ± 3 | 656 | 58 ± 2 | 756 | > 5 |  |  | > 5 |  |  | 
13 | CONC(=O)CN.O=C(O)C(F)(F)F [TFA•H2NCH2C(O)NHOCH3, O-Methylglycine Hydroxamic Acid Trifluoroacetic Acid] | 66 | 66 | 1850 |  |  |  |  |  |  | 47 | 55 | 1510 | 67 | 1340 | > 5 | >40 | 50 | > 5 |  |  | 
14 | NCC(=O)NO [TFA•H2NCH2G(O)NHOH, glycine hydroxamic trifluoracetic acid] |  | 104 ± 4 | 23 |  |  |  |  |  |  | 99 ± 3 |  | 20 | 94 ± 4 | 78 |  |  |  |  | 112 ± 7 | >5 | MIC [6]: >5 mM
15 | N,O-Methylglycine Hydroxamic Acid Trifluoroacetic Acid [TFA•H2NCH2C(O)N(CH3)OCH3] | 66 | 66 ± 4 | 590 |  |  |  |  |  |  |  |  | 633 |  | 875 |  |  |  |  | 68 ± 5 | >5 | Ki [1]: 644 µM; In % (percent inhibition of alanine racemase) [2, 9]: 66 ± 3%; In % (percent inhibition of alanine racemase) [4, 12]: 49 ± 2%; MIC [6]: >5 mM; Days of Detection [7]: 9 days; MIC [8]: >200 µg/mL
16 | N-Benzylglycine Hydroxamic Acid [PhCH2NHCH2C(O)NHOH] | 88 | 88 ± 3 | 1980 |  |  |  |  |  |  |  |  | 1240 |  | 1840 |  | 18.5 |  |  | 39 ± 9 | >5 | Ki [1]: 519 µM; In % (percent inhibition of alanine racemase) [2, 9]: 53 ± 13%; In % (percent inhibition of alanine racemase) [4, 12]: 0.58 ± 3%; MIC [6]: >5 mM; MIC ([8]; MGIT Assay): 50 µg/mL
